Experimental data: US12030877B2, “Prostaglandin E synthase inhibitors and methods for utilizing the same” (University of Kentucky Research Foundation, priority 2016, dated 2024)

The compounds below were run against T1, mPGES-1 (Homo sapiens, UniProt O14684) (assay: mPGES-1 enzyme activity assay (PGE2 enzyme immunoassay), human enzyme). Settings: IC50 against mPGES-1, Human enzyme, recombinant microsomal enzyme; means ± SD, triplicate.
T1 sequence (O14684 1-152): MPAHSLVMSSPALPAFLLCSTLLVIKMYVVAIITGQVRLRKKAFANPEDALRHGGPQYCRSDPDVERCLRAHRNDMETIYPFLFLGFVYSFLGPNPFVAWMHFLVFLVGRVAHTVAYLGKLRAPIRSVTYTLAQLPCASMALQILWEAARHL
Assay type: biochemical
Set-up: made in house; host or cells: FreeStyle 293-F cells, crude microsomal preparation
Procedure: (§1) Studies were conducted to characterize the inhibitory activity against recombinant mPGES-1 of the compounds synthesized in accordance with Examples 1-4, and disclosed herein.
(§2) Briefly, FreeStyle 293-F cells were cultured following manufacturer's manual in FreeStyle 293 expression medium on orbit rotate shaker in 8% CO2 incubator at 37° C. Cells were transfected with 1.5 μg/mL of mPGES-1/pcDNA3 construct using FreeStyle Max reagent at a cell density of 1×10^6 for 2 days. Transfected cells were collected, washed, and sonicated in TSES buffer (15 mM Tris-HCl, pH 8.0 plus 0.25 M sucrose, 0.1 mM EDTA and 1 mM DTT) on ice. The broken cells were first centrifuged at 12,500×g for 10 min. The supernatant was further centrifuged at 105,000×g for 1 hr at 4° C. The pellet was washed and homogenized in PBS buffer. The crude microsomal mPGES-1 preparation was aliquoted and stored at −80° C. The crude protein concentration was 8 mg/mL.
(§3) The enzyme activity assays were performed on ice in 1.5 ml microfuge tubes by using the expressed mPGES-1. The reaction mixture contained: 0.2 M Na2HPO4/NaH2PO4, pH 7.2, 10 μL; 0.1 M GSH, 2.5 μL; diluted microsomal enzyme (80 μg/mL), 1 μL; PGH2 (0.31 mM in DMF), 5 μL; 1 μL inhibitor; and H2O in a final reaction volume of 100 μL. PGH2 was stored in dry ice and used to initiate the reaction.
(§4) Compounds were incubated with the enzyme for 15 min at room temperature before the addition of cold PGH2 (1 μM final) to initiate the enzyme reaction. After 30 s, 10 μL of SnCl2 (40 mg/mL) in ethanol was added to stop the reaction. The nonenzymatic conversion of PGH2 to PGE2 was performed in the same buffer devoid of enzyme. The reaction mixture was placed on ice until PGE2 production was determined by the PGE2 enzyme immunoassay as described earlier. IC50 values of the inhibitors were calculated by using the GraphPad Prism 4.0 program. The results are set forth in the tables provided in Examples 7-10.

SMILES | IC50 [nM]
O=C1NC(=O)C(=Cc2ccc(OCCCCC3CCCCC3)c(Br)c2)C(=O)N1 [Compound I-03] | 45 ± 8
Cc1cc(C=C2C(=O)NC(=O)NC2=O)ccc1OCCCCC1CCCCC1 [Compound I-04] | 82 ± 10
O=C1NC(=O)C(=Cc2ccc(OCCCCC3CCCCC3)c(O)c2)C(=O)N1 [Compound I-05] | 116 ± 17
COc1cc(C=C2C(=O)NC(=O)NC2=O)ccc1OCCCCC1CCCCC1 [Compound I-06] | 121 ± 20
O=C1NC(=O)C(=Cc2ccc(OCCCCC3CCCCC3)c([N+](=O)[O-])c2)C(=O)N1 [Compound I-08] | 67 ± 20
O=C1NC(=O)C(=Cc2ccc(OCCCCC3CCCCC3)c(Br)c2)C(=O)N1 [Compound I-22] | 20 ± 4
O=C1NC(=O)C(=Cc2ccc(OCCCCC3CCCCC3)c([N+](=O)[O-])c2)C(=O)N1 [Compound I-23] | 53 ± 14
O=C1NC(=O)C(=Cc2ccc(OCCCC3CCCCC3)c(Cl)c2)C(=O)N1 [Compound I-24] | 110 ± 21
O=C1NC(=O)C(=Cc2ccc(OCCCC3CCCCC3)c(Br)c2)C(=O)N1 [Compound I-25] | 104 ± 25
O=C1NC(=O)C(=Cc2ccc(OCCCC3CCCCC3)c(Cl)c2)C(=O)N1 [Compound I-30] | 78 ± 13
O=C1NC(=O)C(=Cc2ccc(OCCCC3CCCCC3)c(Br)c2)C(=O)N1 [Compound I-31] | 112 ± 13

Same assay, conditions: compound at a concentration of 10 μM; read-out: % inhibition of the compound against mPGES-1, Human enzyme

SMILES | inhibition at 10 µM [%]
CCCCOc1ccc(-c2nn(-c3ccccc3)cc2C=C2C(=O)N(C)C(=O)N(C)C2=O)cc1 [VI-19] | 30
CCCCOc1ccc(-c2nn(-c3ccc(Cl)cc3)cc2C=C2C(=O)N(C)C(=O)N(C)C2=O)cc1 [VI-20] | 29
CCCCCCCCOc1ccc(-c2nn(-c3ccccc3)cc2C=C2C(=O)N(C)C(=O)N(C)C2=O)cc1 [VI-21] | 16
CCCCCCCCOc1ccc(-c2nn(-c3ccc(Cl)cc3)cc2C=C2C(=O)N(C)C(=O)N(C)C2=O)cc1 [VI-22] | 6.8
CCCCCCCCCCOc1ccc(-c2nn(-c3ccccc3)cc2C=C2C(=O)N(C)C(=O)N(C)C2=O)cc1 [VI-23] | 0
CCCCCCCCCCOc1ccc(-c2nn(-c3ccc(Cl)cc3)cc2C=C2C(=O)N(C)C(=O)N(C)C2=O)cc1 [VI-24] | 0
CCOC(=O)/C(C#N)=C\c1cn(-c2ccc(Cl)cc2)nc1-c1ccc(OCC)cc1 [VII-03] | 24
CCCCCCOc1ccc(-c2nn(-c3ccc(Cl)cc3)cc2/C=C(/C#N)C(=O)OCC)cc1 [VII-04] | 37
CCCCOc1ccc(-c2nn(-c3ccccc3)cc2C=C(C#N)C#N)cc1 [VII-22] | 54
CCCCOc1ccc(-c2nn(-c3ccc(Cl)cc3)cc2C=C(C#N)C#N)cc1 [VII-23] | 77
CCCCCCCCOc1ccc(-c2nn(-c3ccccc3)cc2C=C(C#N)C#N)cc1 [VII-25] | 55
CCCCCCCCOc1ccc(-c2nn(-c3ccc(Cl)cc3)cc2C=C(C#N)C#N)cc1 [VII-26] | 52
CCCCCCCCCCOc1ccc(-c2nn(-c3ccccc3)cc2C=C(C#N)C#N)cc1 [VII-27] | 49
CCCCCCCCCCOc1ccc(-c2nn(-c3ccc(Cl)cc3)cc2C=C(C#N)C#N)cc1 [VII-28] | 47

Same assay, conditions: recombinant microsomal enzyme; means ± SD, triplicate; read-out: IC50 against mPGES-1, Human enzyme

SMILES | IC50 [nM]
O=C1NC(=O)C(=Cc2ccc(OCCCCC3CCCCC3)cc2)C(=O)N1 [Compound I-01] | 622 ± 121
O=C1NC(=O)C(=Cc2ccc(OCCCCC3CCCCC3)c(Cl)c2)C(=O)N1 [Compound I-02] | 33 ± 3
CCCCCCOc1ccc(/C=C(\C#N)C(=O)OCC)cc1[N+](=O)[O-] [Compound V-01] | 8740 ± 1170
CCCCCCCOc1ccc(/C=C(\C#N)C(=O)OCC)cc1[N+](=O)[O-] [Compound V-02] | 4820 ± 511
CCCCCCCCOc1ccc(/C=C(\C#N)C(=O)OCC)cc1[N+](=O)[O-] [Compound V-03] | 4750 ± 489
CCCCCOc1ccc(/C=C(\C#N)C(=O)OCC)cc1 [Compound V-07] | 6220 ± 502
CCCCCCOc1ccc(/C=C(\C#N)C(=O)OCC)cc1 [Compound V-08] | 5240 ± 429
CCCCCCCOc1ccc(/C=C(\C#N)C(=O)OCC)cc1 [Compound V-09] | 3520 ± 471
CCCCCCCOc1ccc(/C=C(\C#N)C(N)=O)cc1 [Compound V-11] | 376 ± 31
CCCCCCOc1c(Br)cc(/C=C(\C#N)C(=O)OCC)cc1OC [Compound V-12] | 998 ± 196
CCCCCCCOc1c(Br)cc(/C=C(\C#N)C(=O)OCC)cc1OC [Compound V-14] | 1010 ± 262
CCCCCCCOc1c(Br)cc(/C=C(\C#N)C(N)=O)cc1OC [Compound V-16] | 1300 ± 232
CCCCCCCCOc1c(Br)cc(/C=C(\C#N)C(=O)OCC)cc1OC [Compound V-17] | 1870 ± 350
CCCCCCCCCCCCCCCCCCOc1c(Br)cc(/C=C(\C#N)C(=O)OCC)cc1OC [Compound V-19] | 2270 ± 350
CCCCOc1ccc(/C=C(\C#N)C(=O)OCC)cc1OC [Compound V-21] | 5630 ± 987
CCCCCCOc1ccc(/C=C(\C#N)C(=O)OCC)cc1OC [Compound V-23] | 1450 ± 192
CCCCCCOc1ccc(C=C(C#N)C#N)cc1OC [Compound V-24] | 294 ± 60
CCCCCCOc1ccc(/C=C(\C#N)C(=O)O)cc1OC [Compound V-25] | 242 ± 30
CCCCCCCCCCOc1ccc(/C=C(\C#N)C(=O)OCC)cc1OC [Compound V-26] | 905 ± 177
CCCCCCCCCCOc1ccc(/C=C(\C#N)C(N)=O)cc1OC [Compound V-28] | 4370 ± 915

SMILES | IC50 [nM]
CCCCCCCCCOc1ccc(/C=C(\C#N)C(=O)OCC)cc1OC [Compound V-29] | 2880 ± 687
CCCCCCCCCOc1ccc(/C=C(\C#N)C(N)=O)cc1OC [Compound V-30] | 1100 ± 212
CCCCCCCCCOc1ccc(/C=C(\C#N)C(=O)O)cc1OC [Compound V-31] | 356 ± 123
CCCCCCCOc1ccc(/C=C(\C#N)C(=O)OCC)cc1OC [Compound V-32] | 4280 ± 1400
CCCCCCCOc1ccc(/C=C(\C#N)C(N)=O)cc1OC [Compound V-33] | 2210 ± 450
CCCCCCCOc1ccc(/C=C(\C#N)C(=O)O)cc1OC [Compound V-34] | 531 ± 116
CCCCOc1ccc(/C=C(\C#N)C(=O)O)cc1OC [Compound V-36] | 541 ± 82
CCCCOc1ccc(/C=C(\C#N)C(N)=O)cc1OC [Compound V-37] | 5410 ± 818
CCOC(=O)/C(C#N)=C/c1ccc(OCC2CCCCC2)c(OC)c1 [Compound V-38] | 10800 ± 1040
COc1cc(C=C(C#N)C#N)ccc1OCC1CCCCC1 [Compound V-39] | 1450 ± 152
COc1cc(/C=C(\C#N)C(N)=O)ccc1OCC1CCCCC1 [Compound V-40] | 1460 ± 119
CCCCCOc1ccc(/C=C(\C#N)C(=O)OCC)cc1OC [Compound V-41] | 4140 ± 858
CCCCCOc1ccc(C=C(C#N)C#N)cc1OC [Compound V-42] | 439 ± 104
CCCCCOc1ccc(/C=C/[N+](=O)[O-])cc1OC [Compound V-43] | 2770 ± 577
CCCCCOc1ccc(/C=C(\C#N)C(=O)O)cc1OC [Compound V-44] | 456 ± 42
CCOc1ccc(-c2nn(-c3ccc(Cl)cc3)cc2/C=C2\SC(=O)NC2=O)cc1 [VII-05] | 1590 ± 557
CCCCCCOc1ccc(-c2nn(-c3ccc(Cl)cc3)cc2/C=C2\SC(=O)NC2=O)cc1 [VII-06] | 1390 ± 303
O=C1NC(=O)/C(=C/c2cn(-c3ccccc3)nc2-c2ccccc2)S1 [VII-07] | 4930 ± 1160
CCOc1ccc(-c2nn(-c3ccc(Cl)cc3)cc2/C=C2\SC(=S)NC2=O)cc1 [VII-08] | 1040 ± 293
CCCCCCOc1ccc(-c2nn(-c3ccc(Cl)cc3)cc2/C=C2\SC(=S)NC2=O)cc1 [VII-09] | 1730 ± 666

These compounds were tested against T2, mPGES-1 Mouse enzyme (Mus musculus, UniProt Q9JM51) (assay: mPGES-1 enzyme activity assay (PGE2 enzyme immunoassay), mouse enzyme). Settings: IC50 against mPGES-1, Mouse enzyme, recombinant microsomal enzyme; means ± SD, triplicate.
T2 construct: made in house; host or cells: FreeStyle 293-F cells, crude microsomal preparation
T2 sequence (Q9JM51 1-153): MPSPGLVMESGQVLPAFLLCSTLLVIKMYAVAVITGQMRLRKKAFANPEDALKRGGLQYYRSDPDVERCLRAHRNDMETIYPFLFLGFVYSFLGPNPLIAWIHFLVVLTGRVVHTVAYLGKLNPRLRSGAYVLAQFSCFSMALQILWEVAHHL
Assay type: biochemical
Procedure: as §1, §2, §3, §4

SMILES | IC50 [nM]
O=C1NC(=O)C(=Cc2ccc(OCCCCC3CCCCC3)cc2)C(=O)N1 [Compound I-01] | 7080 ± 627
O=C1NC(=O)C(=Cc2ccc(OCCCCC3CCCCC3)c(O)c2)C(=O)N1 [Compound I-05] | 2900 ± 293
COc1cc(C=C2C(=O)NC(=O)NC2=O)ccc1OCCCCC1CCCCC1 [Compound I-06] | 1460 ± 209

Same assay, conditions: compound at a concentration of 10 μM; read-out: % inhibition of the compound against mPGES-1, Mouse enzyme

SMILES | inhibition at 10 µM [%]
Cc1cc(C=C2C(=O)NC(=O)NC2=O)ccc1OCCCCC1CCCCC1 [Compound I-04] | 25

Same assay, conditions: recombinant microsomal enzyme; means ± SD, triplicate; read-out: IC50 against mPGES-1, Mouse enzyme

SMILES | IC50 [nM]
O=C1NC(=O)C(=Cc2ccc(OCCCCC3CCCCC3)c(Cl)c2)C(=O)N1 [Compound I-02] | 157 ± 31
